The record followed here is patent US20240058283A1, “THE MODE OF ACTION OF N-MeDCPA ON TRPC CHANNELS” (West Virginia University Board of Governors on Behalf of …, priority 2022, published 2024).

One data set addresses T1, TRPC7 (Homo sapiens, UniProt Q9HCX4).
T1 construct: expressed in transfected cells; host or cells: HEK293 (transient transfection)
T1 sequence (Q9HCX4 1-862): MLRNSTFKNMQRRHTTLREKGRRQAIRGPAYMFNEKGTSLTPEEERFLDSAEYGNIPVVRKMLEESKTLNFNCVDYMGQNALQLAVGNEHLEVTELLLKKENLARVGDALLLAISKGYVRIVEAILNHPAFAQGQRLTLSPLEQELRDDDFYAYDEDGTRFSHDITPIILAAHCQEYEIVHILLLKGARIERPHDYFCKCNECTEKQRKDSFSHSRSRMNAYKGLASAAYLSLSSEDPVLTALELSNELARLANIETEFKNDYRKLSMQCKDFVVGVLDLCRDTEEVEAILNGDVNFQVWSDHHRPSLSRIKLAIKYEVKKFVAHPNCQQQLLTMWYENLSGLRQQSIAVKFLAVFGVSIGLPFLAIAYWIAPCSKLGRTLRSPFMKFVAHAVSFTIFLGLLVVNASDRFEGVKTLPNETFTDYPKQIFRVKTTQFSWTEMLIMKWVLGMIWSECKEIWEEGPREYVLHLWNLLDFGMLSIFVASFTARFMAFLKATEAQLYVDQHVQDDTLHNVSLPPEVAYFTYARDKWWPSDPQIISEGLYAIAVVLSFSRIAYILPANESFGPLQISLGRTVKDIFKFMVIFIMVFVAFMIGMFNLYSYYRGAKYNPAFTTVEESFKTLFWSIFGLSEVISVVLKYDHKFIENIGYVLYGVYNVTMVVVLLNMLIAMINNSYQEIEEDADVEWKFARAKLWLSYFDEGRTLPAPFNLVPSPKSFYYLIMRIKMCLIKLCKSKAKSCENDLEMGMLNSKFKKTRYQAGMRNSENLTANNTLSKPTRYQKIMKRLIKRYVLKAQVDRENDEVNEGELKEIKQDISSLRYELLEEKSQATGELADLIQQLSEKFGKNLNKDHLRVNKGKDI
Put plainly: OAG-induced Ca2+ entry in Fura2-loaded HEK293 cells overexpressing TRPC7. The class given is cell-based. The method, then: Inhibition of DAG-mediated TRPC activation. To determine if ELP-004 (N-MeDCPA) inhibits DAG-induced TRPC activation, HEK293 cells expressing TRPC3, TRPC6 or TRPC7 were loaded with Fura2 and incubated with ELP-004 (0 to 1 mM) for 10 minutes prior to challenging with 1-Oleoyl-2-acetyl-sn-glycerol (OAG), a membrane permeable form of diacylglycerol.
Cell Culture—HEK293 cells were grown in DMEM with 4.5 g/L glucose supplemented with 10% FBS and 1% Gentamycin (Full DMEM media; Thermo-Fisher Scientific, Waltham, MA) at 37° C. and 5% CO2. […]
TRPC activity assay—Cells grown on glass coverslips were incubated in a cation-safe buffer (107 mM NaCl, 7.2 mM KCl, 1.2 mM MgCl2, 11.5 mM Glucose, 20 mM HEPES-NaOH, 1 mM CaCl2), pH 7.2) and loaded with Fura2-acetoxymethylester (Fura2-AM; 2 μM) for 30 min at 24° C. as previously described^10,11. […] Ca^2+/Sr^2+ measurements were taken using a Leica DMI 6000B fluorescence microscope controlled by Slidebook software (Intelligent Imaging Innovations, Denver, CO). Fluorescence emission at 505 nm was monitored in response to excitation at alternating 340 nm and 380 nm wavelengths at a frequency of 0.67 Hz; intracellular Ca^2+ measurements are shown at 340/380 nm ratios obtained from groups of 35-45 single cells. […]

Another data set concerns rats. The following applies: rat, in vivo.
Data set [1] can be described thus: Metabolite formation in human liver S9. The class given is in vitro ADME. As to conditions: cofactors-fortified human liver S9, 37 degrees centigrade, 1 hour; LC-MS/MS. The method, then:
(§1) Drug Synthesis—ELP-004 (N-MeDCPA) was synthesized as described in U.S. patent Ser. No. 10/682,320. […] Metabolites formed after incubations using either cofactors-fortified mouse or human liver S9 (mouse liver S9; human liver S9) at 37 degrees centigrade for 1 hour. The reaction was quenched by ultracentrifugation. The supernatant was analyzed using LC-MS/MS analysis using Accela LC (Thermo Scientific, Inc., San Jose, CA) coupled to an LTQ LX or to LTQ Orbitrap XL.
(§2) ELP-004 is N-(3,4-dichlorophenyl)-N-methylpropanamide. The core structure of ELP-004 is an aniline compound. Aniline compounds, generally, have a high risk of forming reactive metabolites. ELP-004 was specifically designed to preclude formation of reactive metabolites. Methylation of the amide nitrogen improves metabolic stability.

Data set [2] is described as follows: Metabolite formation in mouse liver S9. The class given is in vitro ADME. As to conditions: cofactors-fortified mouse liver S9, 37 degrees centigrade, 1 hour; LC-MS/MS. The method, then:
as §1, §2

Data set [3] is described as follows: Ability to cross the blood brain barrier. The procedure: ELP-004 was evaluated for its ability to cross the blood brain barrier. […] Other medications, such as for example but not limited to bupropion are known to cause problems due to dopamine transporter binding.
Data set [4] can be described thus: Elimination after administration per os. As to conditions: administered per os. It counts as in vivo.
The subject of the next data set is CYP enzymes. The experiment in a line: Induction of CYP enzymes. The class given is in vitro ADME.

pIC50: −log10 of the molar value. Like-named read-outs stand apart in the source and are kept apart here.

For `CCC(=O)N(C)c1ccc(Cl)c(Cl)c1` [ELP-004, N-(3,4-dichlorophenyl)-N-methylpropanamide], the pIC50 on TRPC7 (FIG. 5, TRPC O/E cells, OAG, Ca2+ present, read-out: TRPC7 IC50) was 8.05; at TRPC7 (HEK293 expressing TRPC7, ELP-004 0 to 1 mM for 10 minutes before OAG, FIG. 1D, read-out: IC50, inhibition of OAG-induced Ca2+ entry) it was 5.70 to 6.00. For the same compound, the “oral LD50” value in the data set with rats is given as greater than 2.5 g/kg body weight. Also, the “formation of reactive or toxic metabolites” value in data set [1] and in data set [2] was “No reactive or toxic compounds were formed” throughout. In data set [3], the “crossing of the blood brain barrier” value is listed as “does not cross the blood brain barrier”. For the same compound, the “time until essentially eliminated” value in data set [4] is no more than 4 h. Moreover, the “effect on induction of CYP enzymes” value in the data set on CYP enzymes is recorded as “no deleterious effect on induction of CYP enzymes”.
